Results from PubChem BioAssay AID248 (DTP/NCI, 2004).
“And” between values parts separate entries of the source, which are not always exact repeats. Identical values can stand only once. Inconclusive results and toxic doses are left out. No stated cut-off is given here; in the data, active means T/C of 150% or more; inactive means T/C below 125%.

System: L1210 leukemia ip in BDF1 mice, survival T/C
Experiment: NCI In Vivo Anticancer Drug Screen. Data for tumor model L1210 Leukemia (intraperitoneal) in B6D2F1 (BDF1) mice
Conditions: endpoint: mean survival time, higher = longer survival
Procedure, shortened: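 Survival endpoint. Drug-treated group vs vehicle group, expressed as T divided by C. Tumor passaged by transplantation.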

[1] = dose: 100.0 mg/kg/injection, schedule: Q01DX009 (ip), vehicle: saline with Tween-80
[2] = dose: 100.0 mg/kg/injection, schedule: Q04DX003 (ip), vehicle: Klucel (hydroxypropylcellulose) (HPC)
[3] = dose: 100.0 mg/kg/injection, schedule: Q04DX003 (ip), vehicle: saline with Tween-80
[4] = dose: 200.0 mg/kg/injection, schedule: Q04DX003 (ip), vehicle: saline with Tween-80
[5] = dose: 200.0 mg/kg/injection, schedule: Q01DX009 (ip), vehicle: saline with Tween-80
[6] = dose: 200.0 mg/kg/injection, schedule: Q04DX003 (ip), vehicle: Klucel (hydroxypropylcellulose) (HPC)
[7] = dose: 400.0 mg/kg/injection, schedule: Q04DX003 (ip), vehicle: saline with Tween-80
[8] = dose: 100.0 mg/kg/injection, schedule: Q01DX001 (ip), vehicle: carboxymethylcellulose (CMC)
[9] = dose: 200.0 mg/kg/injection, schedule: Q01DX001 (ip), vehicle: carboxymethylcellulose (CMC)
[10] = dose: 100.0 mg/kg/injection, schedule: Q04DX002 (ip), vehicle: saline
[11] = dose: 200.0 mg/kg/injection, schedule: Q04DX002 (ip), vehicle: saline
[12] = dose: 400.0 mg/kg/injection, schedule: Q04DX002 (ip), vehicle: saline

Measured: T/C

COc1ccc(C(=O)/C=C/c2cccc(OC)c2O)cc1
inactive: dose: 75.0 mg/kg/injection, schedule: Q04DX003 (ip), vehicle: saline 101 % of control | dose: 150.0 mg/kg/injection, schedule: Q04DX003 (ip), vehicle: saline 91 % of control | dose: 300.0 mg/kg/injection, schedule: Q04DX003 (ip), vehicle: saline 101 % of control

COC(=O)/C(Cl)=C(\Cl)C(=O)OC
inactive: [1] 95 % of control | [2] 96 % of control | [3] 102 % of control | [4] 107 % of control

CCOc1ccc(NC(=O)OC/C=C/c2ccccc2)cc1
inactive: dose: 50.0 mg/kg/injection, schedule: Q01DX009 (ip), vehicle: saline with Tween-80 96 % of control | [1] 93 % of control | [5] 90 % of control

CCOC(=O)/C(N=O)=C(/O)c1ccncc1
inactive: [2] 96 % of control | [6] 102 % of control

Cn1nc(NC(=O)C(F)(F)F)c2nccnc21
inactive: [1] 95 % of control | [3] 100 % of control | [5] 94 % of control | [4] 101 % of control | [7] 108 % of control

O=[N+]([O-])c1ccc(N/N=C/c2cc(Cl)cc(Cl)c2)c([N+](=O)[O-])c1
inactive: dose: 100.0 mg/kg/injection, schedule: Q01DX001 (ip), vehicle: saline 100 % of control | dose: 200.0 mg/kg/injection, schedule: Q01DX001 (ip), vehicle: saline 105 % of control | dose: 400.0 mg/kg/injection, schedule: Q01DX001 (ip), vehicle: saline 96 % of control

CCCCCCCCCCCCCCCC(=O)Nc1ccc(Cl)c(Cl)c1
inactive: dose: 50.0 mg/kg/injection, schedule: Q04DX003 (ip), vehicle: carboxymethylcellulose (CMC) 87 % of control | [8] 89 % of control | dose: 100.0 mg/kg/injection, schedule: Q01DX009 (ip), vehicle: carboxymethylcellulose (CMC) 102 % of control and 89 % of control | dose: 100.0 mg/kg/injection, schedule: Q04DX002 (ip), vehicle: other 92 % of control and 101 % of control | dose: 100.0 mg/kg/injection, schedule: Q04DX003 (ip), vehicle: carboxymethylcellulose (CMC) 95 % of control | [9] 90 % of control | dose: 200.0 mg/kg/injection, schedule: Q01DX009 (ip), vehicle: carboxymethylcellulose (CMC) 96 % of control and 86 % of control | dose: 200.0 mg/kg/injection, schedule: Q04DX002 (ip), vehicle: other 93 % of control and 89 % of control | dose: 200.0 mg/kg/injection, schedule: Q04DX003 (ip), vehicle: carboxymethylcellulose (CMC) 87 % of control | dose: 400.0 mg/kg/injection, schedule: Q01DX009 (ip), vehicle: carboxymethylcellulose (CMC) 93 % of control and 86 % of control | dose: 400.0 mg/kg/injection, schedule: Q04DX002 (ip), vehicle: other 93 % of control and 94 % of control

CCN(CC)C(=O)COc1ccc(Cl)cc1
inactive: [10] 114 % of control | [11] 107 % of control | [12] 118 % of control

C/C(CCC1=CC=CC1=O)=N\NC(N)=O
inactive: dose: 100.0 mg/kg/injection, schedule: Q01DX001 (ip), vehicle: other 98 % of control

CCCC(C)C1(CC)C(=O)NC(=O)NC1=O (stereo not given)
inactive: dose: 20.0 mg/kg/injection, schedule: Q01DX001 (ip), vehicle: saline 97 % of control | dose: 20.0 mg/kg/injection, schedule: Q04DX003 (ip), vehicle: saline 93 % of control | dose: 40.0 mg/kg/injection, schedule: Q01DX001 (ip), vehicle: saline 103 % of control | dose: 40.0 mg/kg/injection, schedule: Q04DX003 (ip), vehicle: saline 98 % of control | dose: 75.0 mg/kg/injection, schedule: Q01DX001 (ip), vehicle: saline 107 % of control | dose: 80.0 mg/kg/injection, schedule: Q01DX001 (ip), vehicle: saline 108 % of control | dose: 80.0 mg/kg/injection, schedule: Q04DX003 (ip), vehicle: saline 97 % of control | dose: 160.0 mg/kg/injection, schedule: Q01DX001 (ip), vehicle: saline 108 % of control

CCn1c(C)nc2cc(N=Cc3ccc(N(CCCl)CCCl)cc3C)ccc21
inactive: dose: 87.5 mg/kg/injection, schedule: Q04DX002 (ip), vehicle: Klucel (hydroxypropylcellulose) (HPC) 102 % of control | dose: 100.0 mg/kg/injection, schedule: Q04DX002 (ip), vehicle: Klucel (hydroxypropylcellulose) (HPC) 95 % of control | dose: 175.0 mg/kg/injection, schedule: Q04DX002 (ip), vehicle: Klucel (hydroxypropylcellulose) (HPC) 102 % of control | dose: 200.0 mg/kg/injection, schedule: Q04DX002 (ip), vehicle: Klucel (hydroxypropylcellulose) (HPC) 102 % of control | dose: 350.0 mg/kg/injection, schedule: Q04DX002 (ip), vehicle: Klucel (hydroxypropylcellulose) (HPC) 98 % of control | dose: 400.0 mg/kg/injection, schedule: Q04DX002 (ip), vehicle: Klucel (hydroxypropylcellulose) (HPC) 102 % of control

CC1CCC(C(=O)O)ON1 (stereo not given)
inactive: [10] 114 % of control | [11] 95 % of control | [12] 100 % of control

O=C1C=CC(=O)N1c1ccnc(N2C(=O)C=CC2=O)c1
inactive: [8] 86 % of control | [9] 97 % of control | dose: 400.0 mg/kg/injection, schedule: Q01DX001 (ip), vehicle: carboxymethylcellulose (CMC) 105 % of control

Nc1ccccc1SC(CC(=O)c1ccccc1)c1ccccc1 (stereo not given)
inactive: dose: 100.0 mg/kg/injection, schedule: Q04DX002 (ip), vehicle: saline with Tween-80 93 % of control and 96 % of control | [3] 91 % of control | dose: 200.0 mg/kg/injection, schedule: Q04DX002 (ip), vehicle: saline with Tween-80 100 % of control and 103 % of control | [4] 93 % of control and 109 % of control | dose: 400.0 mg/kg/injection, schedule: Q04DX002 (ip), vehicle: saline with Tween-80 98 % of control and 104 % of control | [7] 95 % of control and 91 % of control

O=C1CCCSc2ccccc21
inactive: dose: 100.0 mg/kg/injection, schedule: Q01DX009 (ip), vehicle: Klucel (hydroxypropylcellulose) (HPC) 106 % of control | [2] 108 % of control | dose: 200.0 mg/kg/injection, schedule: Q01DX009 (ip), vehicle: Klucel (hydroxypropylcellulose) (HPC) 104 % of control | [6] 106 % of control | dose: 400.0 mg/kg/injection, schedule: Q01DX009 (ip), vehicle: Klucel (hydroxypropylcellulose) (HPC) 106 % of control | dose: 400.0 mg/kg/injection, schedule: Q04DX003 (ip), vehicle: Klucel (hydroxypropylcellulose) (HPC) 101 % of control

C(/C=C/C=C/Nc1ccc(N=Nc2ccccc2)cc1)=Nc1ccc(N=Nc2ccccc2)cc1
inactive: dose: 100.0 mg/kg/injection, schedule: Q01DX009 (ip), vehicle: saline sonified 94 % of control | dose: 100.0 mg/kg/injection, schedule: Q04DX003 (ip), vehicle: saline sonified 94 % of control | dose: 200.0 mg/kg/injection, schedule: Q01DX009 (ip), vehicle: saline sonified 94 % of control | dose: 200.0 mg/kg/injection, schedule: Q04DX003 (ip), vehicle: saline sonified 93 % of control | dose: 400.0 mg/kg/injection, schedule: Q04DX003 (ip), vehicle: saline sonified 91 % of control

O=C1C=C(c2ccccc2)OC(c2ccccc2)C1 (stereo not given)
inactive: dose: 75.0 mg/kg/injection, schedule: Q01DX009 (ip), vehicle: Klucel (hydroxypropylcellulose) (HPC) 97 % of control | dose: 150.0 mg/kg/injection, schedule: Q01DX009 (ip), vehicle: Klucel (hydroxypropylcellulose) (HPC) 99 % of control | dose: 300.0 mg/kg/injection, schedule: Q01DX009 (ip), vehicle: Klucel (hydroxypropylcellulose) (HPC) 99 % of control
